Results on 1 compound are retold here after US6334445B1, “Methods and compositions for treatment of ovarian cancer” (Baker Norton Pharmaceuticals, Inc., priority 1997, dated 2002).

For series [1], the system named is breast cancer. Conditions: cited from earlier work.
The conditions of series [2]: infusion times 3 to 24 hours; cited from earlier work.
A further series relates to ovarian cancer. As to conditions: cited from earlier work.
The test system of series [3] is breast cancer. As to conditions: paclitaxel 135 mg/m^2 in combination with cisplatin 75 mg/m^2; cited from earlier work.
The next series relates to mammalian cells. Conditions: 50 nM paclitaxel concentration; cited from earlier work.

Read-outs that look alike come from different tables or passages of the source.

From the text for ovarian carcinoma: Patients with taxane-resistant ovarian cancer are defined as having (1) progression of disease while receiving taxane therapy; (2) progression within 12 months of taxane therapy; (3) persistent stable disease after six courses of taxane therapy; or (4) persistent stable disease with at least CA-125 rising measurements (to a value of ≧100).
Patients without liver metastases and who had mild liver function abnormalities (SGOT and alkaline phosphatase less than 1.5 times upper normal limit) and a normal bilirubin received a total dose of 140 mg/m^2.
Each mL of sterile solution contains 527 mg polyoxyethylated castor oil (Cremaphor® EL) and 49.7% (w/v) absolute alcohol.
The in-line filter was then connected to the subjects central access device.
The procedure was repeated three more times, for a total 96 hour continuous infusion. The final dose was 140 mg/m^2/96 hours.
Complete response (CR): Complete disappearance of all clinical evidence of disease persisting through the next evaluation period at 6 weeks. Evaluable lesions must have disappeared completely.
Partial Response (PR): At least 50% decrease in the sum of the products of the diameters of all measurable lesions persisting through the next evaluation period at six weeks. In addition, concomitant evaluable lesions must show no evidence of progressive disease or new lesions.
Progressive Disease (PD): 25% or greater progression in the sum of the products of the diameter of any measurable lesion(s) over one cycle of chemotherapy or the appearance of any new lesion consistent with metastatic disease.

Take `CC(=O)O[C@H]1C(=O)[C@@]2(C)[C@H]([C@H](OC(=O)c3ccccc3)[C@]3(O)C[C@H](OC(=O)[C@H](O)[C@@H](NC(=O)c4ccccc4)c4ccccc4)C(C)=C1C3(C)C)[C@]1(OC(C)=O)CO[C@@H]1C[C@@H]2O` [paclitaxel, 5β, 20-epoxy-1 ,2α4,7β10β13α-hexahydroxytax-11-en-9-one 4, 10-diacetate 2-benzoate 12-ester with (2R,3S)-Nbenzoyl-3-phenylisososerine]: the response rate is listed as 36-71% with breast cancer [1] (doses of 250 mg/m^2 with G-CSF, single agent); 13-37% in the series on breast cancer [1] (doses of 135 to 175 mg/m^2, single agent); 15% in the series with ovarian cancer (135 mg/m^2 every three weeks); 20% in the series on ovarian cancer (175 mg/m^2 every three weeks); 79% in the series with breast cancer [3]; 21% in the series with ovarian carcinoma (partial responses, 14 patients, 96 hour infusion). Also, in series [2], the dose limiting toxicity result is listed as “reversible myelosuppression”. For the same compound, the “time to tumor progression” value is given as 19 weeks in the series on ovarian cancer (higher dose (175 mg/m^2)) and 14 weeks in the series on ovarian cancer (lower dose (135 mg/m^2)). For the same compound, the “effect on microtubules and cells” value with mammalian cells was “significant increase in microtubule number”. In the series with ovarian carcinoma (of 14 patients, 140 mg/m^2 over 96 hour infusion every 21 days), the partial responses is given as 3. Also, the “patients with stable disease” value in the series with ovarian carcinoma (of 14 patients, 96 hour infusion) was “One”. Also, in the series on ovarian carcinoma (partial responses plus stable disease, 14 patients, 96 hour infusion), the overall response rate amounted to 29%.
